Test results reported in publication PMC8469489, “Effect of Lactic Acid Bacteria on the Pharmacokinetics and Metabolism of Ginsenosides in Mice” (Pharmaceutics, 2021).
Where two headings read alike, the source gives them in different places.

How the values were obtained:
[1] = Microsomal stability; type: in vitro ADME, mouse; conditions: 1 μM; for Metabolic stability in mouse liver microsomes: incubation for 1 h
Experimental: For microsomal stability, individual ginsenoside (1 μM each) was reconstituted in 100 mM potassium phosphate buffer (pH 7.4) containing 0.25 mg of mouse liver microsomes and preincubated for 5 min at 37 °C. This reaction was initiated by adding an NADPH-generating system (1.3 mM β-NADP, 3.3 mM glucose-6-phosphate, 3.3 mM MgCl2, and 1.0 unit/mL glucose-6-phosphate dehydrogenase; purchased form Corning Life Sciences) (to make final volume of 100 μL). The reaction mixture was incubated for 1 h at 37 °C in a shaking water bath and the reaction was quenched by addition of addition of an ice-cold IS solution (200 μL; 0.05 ng/mL berberine in methanol) to 30 μL of the reaction samples.
(§1) Subsequent protocols were identical to the method described above except for the use of ice-cold IS solution (200 μL; 0.05 ng/mL berberine in acetonitrile) to 30 μL of the reaction samples.
Plasma and microsomal stability was determined from the percent of remaining concentration of ginsenosides or marker compounds compared to their initial concentration.

[2] = Recovery of ginsenosides from urine and feces for 48 h after RGE, amoxicillin vs control; conditions: for Ginsenosides identified in urine: urine 48 h after single oral RGE 2 g/kg; for Fecal recovery, change by the amoxicillin treatment: feces 48 h after single oral RGE 2 g/kg, vs control
Experimental: Aliquots (200 μL) of an IS (0.05 ng/mL berberine in methanol) were added to 30 μL of plasma or urine samples. Aliquots (600 μL) of an IS methanol solution containing 0.05 ng/mL berberine were added to 100 μL of 10% feces homogenate samples. […] After centrifugation, 200 μL of the supernatant was transferred to a clean tube and dried under a nitrogen stream at 40 °C. The residue was reconstituted using 100 μL of 70% methanol supplemented with 0.1% formic acid, and a 10-μL aliquot was injected into the LC–MS/MS system.

[3] = set-up: method as in PMID 32023909; conditions: cited from earlier work
[4] = system: lactic acid bacteria (LAB); experiment: Incubation of single ginsenoside with LAB (formation rate of metabolite ginsenoside); type: in vitro ADME; conditions: 7 days, 37 °C, MRS broth
Experimental: To compare the involvement of LAB on individual ginsenoside, an aliquot (10 μL) of each ginsenoside stock solution (10 mM in methanol) was mixed with autoclaved MRS broth (550 mg/10 mL in distilled water) and added 2 g of LAB (contained 1 billion CFU). Then, the mixture was incubated for 7 days in a shaking incubator at 37 °C and 300 rpm. For the analysis of ginsenosides, 0.2 mL aliquot of incubation mixture was collected every 24 h for 7 days. The incubation medium was diluted 100-fold with distilled water and stored at −80 °C. For the ginsenoside analysis, 200 μL of an IS solution (0.05 ng/mL berberine in methanol) was added to 30 μL of 100-fold diluted samples.

[5] = Pharmacokinetics of ginsenosides after single oral RGE after amoxicillin with or without repeated LAB treatment; conditions: single oral RGE 2 g/kg; for AUC: AUC 0 to 48 h
Experimental: (§2) Mice received amoxicillin (n = 12, 20 mg/kg, dissolved in water at 2 mL/kg, twice daily) for 3 days via oral gavage. From the 4th day, mice from the LAB + amoxicillin treatment group received LAB (2 g/kg suspended in water at 2 mL/kg, once daily) for 7 days via oral gavage. Mice from the amoxicillin treatment group received water (2 mL/kg, once daily) for 7 days via oral gavage.
Blood sampling was performed using a sparse sampling method via the right or left retro-orbital vein under isoflurane anesthesia at 0, 2, 4, and 8 h after the RGE administration through the heparinized capillary tube. […] After centrifugation of the blood samples at 10,000× g for 1 min, 30 μL aliquots of plasma were stored at −80 °C until the analysis of the ginsenosides. Subsequent protocols were identical to the amoxicillin treated group.
Pharmacokinetic parameters were calculated using WinNonlin (version 5.1, Pharsight, Mountain View, CA, USA) by a non-compartmental analysis.

[6] = Recovery of ginsenosides from urine and feces for 48 h after RGE, amoxicillin with or without LAB; conditions: for Fecal recovery, change by LAB treatment: feces 48 h after single oral RGE 2 g/kg, Amoxicillin + LAB vs amoxicillin
Experimental: as §2

[7] = system: lactic acid bacteria (LAB); experiment: In vitro RGE fermentation with LAB; conditions: for Alteration of ginsenoside by fermentation of RGE with LAB: 7 days incubation; for Increase of ginsenoside by fermentation of RGE with LAB: 7 days, relative to the first day
[8] = Pharmacokinetics of ginsenosides after single oral RGE with or without amoxicillin treatment; type: in vivo, mice; conditions: single oral RGE 2 g/kg; for AUC: AUC 0 to 48 h
Experimental: Male ICR mice (7-weeks-year-old, 30–35 g) were purchased from Samtako Co. (Osan, Kyunggi-do, Korea). Animals were acclimatized for 1 week in an animal facility at Kyungpook National University. Food and water were available ad libitum.
Before blood sampling, mice were anesthetized using isoflurane (isoflurane vaporizer to 2% with oxygen flow at 0.8 L/min) for 5 min.

[9] = Plasma protein binding by rapid equilibrium dialysis; type: in vitro ADME; conditions: 1 μM, 4 h at 37 °C, mouse plasma
Experimental: Briefly, 100 μL of mouse plasma containing 1 μM of each ginsenoside was added to the semipermeable membrane’s inner sample chamber (molecular weight cut-off 8000 Da), and 300 μL of PBS was added to the outer buffer chamber. The samples were then incubated for 4 h at 37 °C on a shaking incubator at 300 rpm, followed by collecting 30-μL aliquots from both the sample and buffer chambers.
as §1
Plasma protein binding was calculated using the following equation [31, 60]: Plasma protein binding=(1−Drug concentration in buffer chamber/Drug concentration in plasma sample chamber)×100(%).

[10] = set-up: method as in PMID 29375375, PMID 28955238; conditions: 100–400 mg of CK, once daily for 9 days; cited from earlier work
[11] = set-up: method as in PMID 27516803, PMID 24235859; conditions: cited from earlier work
[12] = Amoxicillin 3 days then water 7 days
[13] = Amoxicillin + LAB (LAB 2 g/kg once daily 7 days)
[14] = Amoxicillin 3 days pretreatment

Row | Compound | Ginsenosides identified in urine [2] | Metabolite formation on incubation of single ginsenoside with LAB [4] | AUC [5, 13] [µg·h/mL] | Cmax ([5]; Amoxicillin + LAB) [µg/mL] | Half-Life ([5]; Amoxicillin + LAB) [h] | MRT ([5]; Amoxicillin + LAB) [h] | Tmax ([5]; Amoxicillin + LAB) [h] | Detection in mouse plasma following repeated LAB administration in addition to amoxicillin [5] | Plasma exposure / pharmacokinetic parameters, LAB treatment compared with amoxicillin group [5] | Fecal recovery, change by LAB treatment [6] | Alteration of ginsenoside by fermentation of RGE with LAB [7] | Cmax ([8]; Control, plasma) [µg/mL] | Half-Life ([8]; Control, plasma) [h] | MRT ([8]; Control, plasma) [h] | Tmax ([8]; Control, plasma) [h] | AUC ([8]; Control, plasma, n = 3) [µg·h/mL] | also measured
1 | CN(C)C(=N)N=C(N)N [metformin, reference compound] | – | – | – | – | – | – | – | – | – | – | – | – | – | – | – | – | percent of remaining after 1 h incubation in the mouse liver microsomes ([1]; NADPH-generating system, 37 °C): 69.35 ± 3.00%
2 | CC(C)=CCC[C@](C)(O[C@@H]1O[C@H](CO)[C@@H](O)[C@H](O)[C@H]1O)[C@H]1CC[C@]2(C)[C@@H]1[C@H](O)C[C@@H]1[C@@]3(C)CC[C@H](O[C@@H]4O[C@H](CO)[C@@H](O)[C@H](O)[C@H]4O[C@@H]4O[C@H](CO)[C@@H](O)[C@H](O)[C@H]4O)C(C)(C)[C@@H]3CC[C@]12C [GRd] | identified in urine | produced GRg3 with the highest formation rate | 0.6181 ± 0.3856 | 0.0184 ± 0.0069 | 25.5 ± 3.8 | 20.6 ± 3.7 | 16.0 ± 9.2 | detected | increased | significantly decreased | gradual decrease | 0.0086 ± 0.0018 | 24.2 ± 3.1 | 21.3 ± 3.0 | 13.3 ± 9.2 | 0.2788 ± 0.117 | Ratio of liver AUC to plasma AUC [3]: < 0.2; Cmax [5, 12]: 0.0065 ± 0.0051 µg/mL; Half-Life [5, 12]: 29.2 ± 2.7 h; MRT [5, 12]: 24.1 ± 3.9 h; Tmax [5, 12]: 5.3 ± 2.3 h; AUC [5, 12]: 0.2131 ± 0.1513 µg·h/mL; Plasma exposure / pharmacokinetic parameters, LAB treatment compared with amoxicillin group ([5]; listed as Rd): significantly increased; Urinary excretion, Amoxicillin + LAB compared with amoxicillin group ([6]; urine 48 h after single oral RGE 2 g/kg): increased; Cmax [8, 14]: 0.0032 ± 0.0016 µg/mL; Half-Life [8, 14]: 29.1 ± 8.6 h; MRT [8, 14]: 24.0 ± 2.1 h; Tmax [8, 14]: 24.7 ± 23.0 h; AUC [8, 14]: 0.1324 ± 0.077 µg·h/mL; Plasma concentrations, amoxicillin treatment compared to the control group [8]: decreased
3 | CC(C)=CCC[C@](C)(O[C@@H]1O[C@H](CO)[C@@H](O)[C@H](O)[C@H]1O)[C@H]1CC[C@]2(C)[C@@H]1[C@H](O)C[C@@H]1[C@@]3(C)CC[C@H](O)C(C)(C)[C@@H]3[C@@H](O)C[C@]12C [GF1] | – | – | – | – | – | – | – | – | – | remained similar | most significant decrease | – | – | – | – | – | Plasma protein binding [9]: over 99%
4 | CC(C)=CCC[C@](C)(O[C@@H]1O[C@H](CO)[C@@H](O)[C@H](O)[C@H]1O)[C@H]1CC[C@]2(C)[C@@H]1[C@H](O)C[C@@H]1[C@@]3(C)CC[C@H](O)C(C)(C)[C@@H]3CC[C@]12C [CK, 20(S)-compound K] | identified in urine | – | 0.2498 ± 0.103 | 0.0093 ± 0.0029 | 12.0 ± 5.0 | 13.7 ± 6.2 | 8.0 ± 0.0 | detected | increased | significantly increased | significantly increased | 0.0036 ± 0.0014 | 13.2 ± 3.2 | 13.9 ± 5.3 | 8.0 ± 0.0 | 0.06994 ± 0.0378 | Fecal recovery, change by the amoxicillin treatment [2]: significantly decreased; Safety and tolerability [10]: safe and well-tolerated; Plasma concentration of CK, Cmax ([11]; subjects who received 3 g fermented RGE (contains 10.9 mg CK)): 0.2545 µg/mL; Plasma concentration of CK, Cmax ([11]; subjects who received RGE (does not contain CK)): 0.0084 to 0.0248 µg/mL; Increase of ginsenoside by fermentation of RGE with LAB [7]: about 30%; Detection in plasma, amoxicillin treatment group [8]: not seen; Detection in plasma, control group [8]: detected
5 | CC(C)=CCC[C@](C)(O)[C@H]1CC[C@]2(C)[C@@H]1[C@H](O)C[C@@H]1[C@@]3(C)CC[C@H](O[C@@H]4O[C@H](CO)[C@@H](O)[C@H](O)[C@H]4O)C(C)(C)[C@@H]3CC[C@]12C [GRh2] | – | the highest among the ginsenoside formation rate | – | – | – | – | – | not found | – | remained similar | remained unchanged | – | – | – | – | – | Metabolic stability in mouse liver microsomes [1]: unstable
6 | CC(C)=CCC[C@](C)(O[C@@H]1O[C@H](CO[C@@H]2O[C@@H](CO)[C@H](O)[C@H]2O)[C@@H](O)[C@H](O)[C@H]1O)[C@H]1CC[C@]2(C)[C@@H]1[C@H](O)C[C@@H]1[C@@]3(C)CC[C@H](O[C@@H]4O[C@H](CO)[C@@H](O)[C@H](O)[C@H]4O[C@@H]4O[C@H](CO)[C@@H](O)[C@H](O)[C@H]4O)C(C)(C)[C@@H]3CC[C@]12C [GRc] | identified in urine | produced GRg3 with the highest formation rate | 0.5244 ± 0.1466 | 0.0183 ± 0.0043 | 24.1 ± 2.4 | 19.0 ± 1.3 | 8.0 ± 0.0 | detected | not different | significantly decreased | most significant decrease | 0.0172 ± 0.0031 | 22.8 ± 6.7 | 19.9 ± 1.7 | 8.0 ± 0.0 | 0.5086 ± 0.109 | Fecal recovery, change by the amoxicillin treatment [2]: increased; Ratio of liver AUC to plasma AUC [3]: < 0.2; Cmax [5, 12]: 0.0132 ± 0.0066 µg/mL; Half-Life [5, 12]: 20.2 ± 1.8 h; MRT [5, 12]: 20.6 ± 1.2 h; Tmax [5, 12]: 4.7 ± 3.1 h; AUC [5, 12]: 0.4482 ± 0.2681 µg·h/mL; Cmax [8, 14]: 0.0148 ± 0.0066 µg/mL; Half-Life [8, 14]: 25.1 ± 9.9 h; MRT [8, 14]: 21.9 ± 1.5 h; Tmax [8, 14]: 13.3 ± 9.2 h; AUC [8, 14]: 0.5717 ± 0.276 µg·h/mL; Plasma concentrations, amoxicillin treatment compared to the control group [8]: not significantly affected
7 | CC(C)=CCC[C@](C)(O)[C@H]1CC[C@]2(C)[C@@H]1[C@H](O)C[C@@H]1[C@@]3(C)CC[C@H](O)C(C)(C)[C@@H]3[C@@H](O[C@@H]3O[C@H](CO)[C@@H](O)[C@H](O)[C@H]3O)C[C@]12C [GRh1, ginsenoside Rh1] | – | – | – | – | – | – | – | not found | – | remained similar | – | – | – | – | – | – | Metabolic stability in mouse liver microsomes [1]: unstable; Increase of ginsenoside by fermentation of RGE with LAB [7]: about 30%
